Measured values as given in publication PMC10244169, “Psychedelics promote plasticity by directly binding to BDNF receptor TrkB” (Nature Neuroscience, 2023).

Tested on: dendritic arbor complexity of neuronal cultures
Assay: Dendritogenesis (Sholl analysis) in neuronal cultures (WT and Y433F^+/−)
Type: cell-based, mouse
Conditions: for Sholl analysis, Mean at distance from soma: fig 6h
Description: In a separate set of experiments to study the effects of extracellular BDNF and 5-HT2A activation, cultures were also pretreated for 10 min with TrkB.FC (200 ng ml^−1) or M100907 (100 nM), respectively. Similar to treatment with the psychedelics, TrkB.FC and M100907 pretreatments were administered in cumulative doses and remained in the medium for the rest of the experiment. At DIV7, neurons were pre-incubated for 1 h with […] MgCl2 to prevent excitotoxicity, then neurons were transfected for the heterologous expression of mCherry. To minimize any possible interference of the transfection protocol upon the drug effect, transfection was done in the morning while treatment with psychedelics was always added in the evening. Twenty-four hours after transfection, neurons were fixed with 4% PFA for 20 min at room temperature, washed in PBS-T, blocked for 30 min with 3% BSA in PBS-T and incubated with chicken anti-MAP2 (Abcam, ab5392; 1:5,000, 1 h, room temperature). Then, coverslips were washed in PBS-T and incubated with Alexa Fluor 647-conjugated antibody goat anti-chicken (Invitrogen, A-21449; 1:1,000, 1 h, room temperature). Next, coverslips were washed in PBS-T and MilliQ water, and mounted in Dako fluorescence mounting medium (Agilent, S302380-2). Ten optical sections with a Z-step of 1.3 μm were acquired using a Zeiss LSM 710 confocal microscope with a LCI Plan/Neofluar 25×/0.8 lmm Korr DIC M27 objective. In the mCherry channel, the center of the soma was manually assigned and the number of dendritic intersections at fixed distances (every 5 μm) from the soma was automatically counted using the Sholl analysis plugin of ImageJ.

For `CN(C)CCc1c[nH]c2cccc(O)c12` [PSI, psilocin], the “6g: Mean (dendritogenesis, Sholl analysis)” value (WT neurons, vehicle mean 32.96) was 62.5, the “6g: Mean Diff. (vehicle vs. treatment), Bonferroni's multiple comparisons test” value (WT:vehicle minus WT:treatment) was -29.54 and the “6g: Mean (dendritogenesis, Sholl analysis)” value (Y433F+/- neurons, vehicle mean 44.44) was 31.05. For the same compound, the “6g: Mean Diff. (vehicle vs. treatment), Bonferroni's multiple comparisons test” value (Y433F+/-:vehicle minus Y433F+/-:treatment) was 13.39, the dendritic arbor complexity (cultures from WT mice) was “enhance dendritic arbor complexity” and the dendritic arbor complexity (cultures from Y433F^+/− mice) was “not Y433F^+/− mice”. The “Sholl analysis, Mean at distance from soma” value (from here on “Sholl analysis, Mean”) (distance from soma 25 µm) was 3.05, the “Sholl analysis, Mean” value (distance from soma 30 µm) was 2.75 and the “Sholl analysis, Mean” value (distance from soma 35 µm) was 2.15. For the same compound, the “Sholl analysis, Mean” value (distance from soma 40 µm) was 1.55, the “Sholl analysis, Mean” value (distance from soma 45 µm) was 1.35 and the “Sholl analysis, Mean” value (distance from soma 50 µm) was 1.3. For the same compound, the “Sholl analysis, Mean” value (distance from soma 55 µm) was 0.95, the “Sholl analysis, Mean” value (distance from soma 60 µm) was 0.8 and the “Sholl analysis, Mean” value (distance from soma 65 µm) was 0.75. The “Sholl analysis, Mean” value (distance from soma 70 µm) was 0.7, the “Sholl analysis, Mean” value (distance from soma 75 µm) was 0.55 and the “Sholl analysis, Mean” value (distance from soma 80 µm) was 0.45. For the same compound, the “Sholl analysis, Mean” value (distance from soma 85 µm) was 0.45, the “Sholl analysis, Mean” value (distance from soma 90 µm) was 0.4 and the “Sholl analysis, Mean” value (distance from soma 95 µm) was 0.65. The “Sholl analysis, Mean” value (distance from soma 100 µm) was 0.55, the “6h: Mean (Sholl analysis)” value (first 6h table (N as WT), distance from soma 10 µm) was 6 and the “6h: Mean (Sholl analysis)” value (first 6h table (N as WT), distance from soma 15 µm) was 7.15. The “6h: Mean (Sholl analysis)” value (first 6h table (N as WT), distance from soma 20 µm) was 7.85, the “6h: Mean (Sholl analysis)” value (first 6h table (N as WT), distance from soma 25 µm) was 6.65 and the “6h: Mean (Sholl analysis)” value (first 6h table (N as WT), distance from soma 30 µm) was 5.65. For the same compound, the “6h: Mean (Sholl analysis)” value (first 6h table (N as WT), distance from soma 35 µm) was 4.5, the “6h: Mean (Sholl analysis)” value (first 6h table (N as WT), distance from soma 40 µm) was 3.6 and the “6h: Mean (Sholl analysis)” value (first 6h table (N as WT), distance from soma 45 µm) was 2.75. The “6h: Mean (Sholl analysis)” value (first 6h table (N as WT), distance from soma 50 µm) was 2.6, the “6h: Mean (Sholl analysis)” value (first 6h table (N as WT), distance from soma 55 µm) was 2.5 and the “6h: Mean (Sholl analysis)” value (first 6h table (N as WT), distance from soma 60 µm) was 2.35. For the same compound, the “6h: Mean (Sholl analysis)” value (first 6h table (N as WT), distance from soma 65 µm) was 1.75, the “6h: Mean (Sholl analysis)” value (first 6h table (N as WT), distance from soma 70 µm) was 1.7 and the “6h: Mean (Sholl analysis)” value (first 6h table (N as WT), distance from soma 75 µm) was 1.35. For the same compound, the “6h: Mean (Sholl analysis)” value (first 6h table (N as WT), distance from soma 80 µm) was 1.15, the “6h: Mean (Sholl analysis)” value (first 6h table (N as WT), distance from soma 85 µm) was 1.1 and the “6h: Mean (Sholl analysis)” value (first 6h table (N as WT), distance from soma 90 µm) was 1.3. The “6h: Mean (Sholl analysis)” value (first 6h table (N as WT), distance from soma 95 µm) was 1.05, the “6h: Mean (Sholl analysis)” value (first 6h table (N as WT), distance from soma 100 µm) was 1.5 and the “6h: Mean (Sholl analysis)” value (second 6h table (N as Y433F), distance from soma 10 µm) was 4.8. The “6h: Mean (Sholl analysis)” value (second 6h table (N as Y433F), distance from soma 15 µm) was 4.05 and the “6h: Mean (Sholl analysis)” value (second 6h table (N as Y433F), distance from soma 20 µm) was 3.8.
